Experimental data published in ChEMBL document CHEMBL1152837, “Ligand binding to nucleic acids and proteins: Does selectivity increase with strength?” (Eur J Med Chem, 2008).

How the values were obtained:
[1] = test system: Nucleic Acid; experiment: Binding affinity to poly(dA).poly(dT) duplex DNA assessed as ratio of KA to KB by ESI-MS analysis; type: nucleic-acid assay
[2] = test system: Nucleic Acid; experiment: Binding affinity to poly(dA).poly(dT) DNA assessed as change in melting temperature; type: nucleic-acid assay
[3] = target: Delta-type opioid receptor (Rattus norvegicus, UniProt P33533); experiment: Binding affinity to delta opioid receptor in rat brain membrane; type: cell membranes
[4] = target: Kappa-type opioid receptor (Rattus norvegicus, UniProt P34975); experiment: Binding affinity to kappa opioid receptor in rat brain membrane; type: cell membranes
[5] = test system: Nucleic Acid; experiment: Binding affinity to poly(A).poly(U) RNA assessed as change in melting temperature; type: nucleic-acid assay

Kappa-type opioid receptor, sequence (P34975 whole entry): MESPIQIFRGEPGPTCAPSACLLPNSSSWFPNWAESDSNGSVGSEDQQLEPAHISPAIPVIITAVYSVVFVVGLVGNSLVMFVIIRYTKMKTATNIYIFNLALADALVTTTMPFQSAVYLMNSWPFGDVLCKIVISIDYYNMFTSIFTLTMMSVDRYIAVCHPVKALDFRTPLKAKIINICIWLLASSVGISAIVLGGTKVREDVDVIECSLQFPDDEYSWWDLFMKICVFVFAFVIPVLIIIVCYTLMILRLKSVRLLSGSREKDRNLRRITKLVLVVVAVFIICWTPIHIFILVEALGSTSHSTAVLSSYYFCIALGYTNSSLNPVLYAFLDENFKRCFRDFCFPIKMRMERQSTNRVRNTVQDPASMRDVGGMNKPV
Delta-type opioid receptor, sequence (P33533 whole entry): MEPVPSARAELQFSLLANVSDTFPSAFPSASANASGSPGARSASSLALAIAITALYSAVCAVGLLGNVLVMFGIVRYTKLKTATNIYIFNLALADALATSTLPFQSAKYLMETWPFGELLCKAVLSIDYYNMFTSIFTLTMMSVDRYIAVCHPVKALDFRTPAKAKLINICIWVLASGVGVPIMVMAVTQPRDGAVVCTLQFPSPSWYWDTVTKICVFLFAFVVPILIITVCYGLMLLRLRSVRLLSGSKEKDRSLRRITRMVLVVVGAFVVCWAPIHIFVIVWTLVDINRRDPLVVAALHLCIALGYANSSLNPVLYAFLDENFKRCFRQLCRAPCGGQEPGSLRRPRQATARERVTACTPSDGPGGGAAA

SMILES: CCOc1ccc(-c2nc3cc(-c4nc5cc(N6CCN(C)CC6)ccc5[nH]4)ccc3[nH]2)cc1
- Ratio [1]: 3.7

SMILES: O=C1c2c(O)ccc(O)c2C(=O)c2c(NCCNCCO)ccc(NCCNCCO)c21
- ΔTm [2]: 23 °C

SMILES: Cn1cc(NC(=O)c2cc(NC(=O)c3cc(NC=O)cn3C)cn2C)cc1C(=O)NCCC(=N)N
- Ratio [1]: 4.4

SMILES: COc1cc2cc3c4cc(OC)c(OC)cc4cc[n+]3c(C)c2cc1OC
- ΔTm [2]: 18 °C

SMILES: COc1cccc2c1C(=O)c1c(O)c3c(c(O)c1C2=O)C[C@@](O)(C(=O)CO)C[C@@H]3O[C@H]1C[C@H](N)[C@H](O)[C@H](C)O1
- ΔTm [2]: 13 °C

SMILES: N=C(N)c1ccc(/N=N/Nc2ccc(C(=N)N)cc2)cc1
- Ratio [1]: 0.32

SMILES: CN1CCN(c2ccc3[nH]c(-c4ccc5[nH]c(-c6ccc(O)cc6)nc5c4)nc3c2)CC1
- Ratio [1]: 2.4

SMILES: CN1CC[C@]23c4c5ccc(O)c4O[C@H]2c2[nH]c4ccccc4c2C[C@@]3(O)[C@H]1C5 [OXYMORPHINDOLE]
- Ki [3]: 0.8 nM
- Ki [4]: 2170 nM

SMILES: Oc1ccc2c3c1O[C@H]1c4[nH]c5ccccc5c4C[C@@]4(O)[C@@H](C2)N(CC2CC2)CC[C@]314 [NALTRINDOLE]
- Ki [4]: 30 nM

SMILES: Cn1cc(NC(=O)c2cc(NC(=O)CNC(=N)N)cn2C)cc1C(=O)NCCC(=N)N
- Ratio [1]: 0.28

SMILES: CC[n+]1c(-c2ccccc2)c2cc(N)ccc2c2ccc(N)cc21
- ΔTm [5]: 17 °C
